Experiments:
Assay type in all cases: in vivo
Spodoptera littoralis = test: Spray test on young transgenic cotton plants, action against Spodoptera littoralis larvae; conditions: for control of the tested insects in the non-transgenic plant (% action): non-transgenic cotton, spray mixture of active ingredient and conventional CryIIIA-toxin, each 100, 50, 10, 5, 1 ppm, 3 to 10 days; for control of the tested insects in the transgenic plant (% action): spray 100, 50, 10, 5, 1 ppm, evaluation 3 to 10 days, compared with treated non-transgenic cotton
From the text: (§1) Young transgenic cotton plants which express the δ-endotoxin CryIIIA are sprayed with an aqueous emulsion spray mixture comprising 100, 50, 10, 5, 1 ppm of profenofos respectively. After the spray coating has dried on, the cotton plants are populated with 10 adult Anthonomus grandis, 10 Spodoptera littora larvae or 10 Heliothis virescens larvae respectively and introduced into a plastic container. Evaluation takes place 3 to 10 days later. The percentage reduction in population, or the percentage reduction in feeding damage (% action), is determined by comparing the number of dead beetles and the feeding damage on the transgenic cotton plants with that of non-transgenic cotton plants which have been treated with an emulsion spray mixture comprising lufenuron and conventional CryIIIA-toxin at a concentration of in each case 100, 50, 10, 5, 1 ppm respectively.
as §1, with “pymetrozine” for “lufenuron”
as §1, with “express tho” for “express the”, “δ-endotoxin CryIa (c)” for “δ-endotoxin CryIIIA”, “of fenoxycarb” for “of profenofos”, “comprising fenoxycarb” for “comprising lufenuron”, “and con-ventional” for “and conventional”
as §1, with “δ-endotoxin CryIa(c)” for “δ-endotoxin CryIIIA”, “of fenoxycarb” for “of profenofos”, “comprising fenoxycarb” for “comprising lufenuron”
(§2) Young transgenic cotton plants which express the δ-endotoxin CryIa(c) are sprayed with an aqueous emulsion spray mixture comprising 100, 50, 10, 5, 1 ppm of pymetrozine respectively. After the spray coating has dried on, the cotton plants are populated with 10 adult Anthonomus grandis, 10 Spodoptera littora larvae or 10 Heliothis virescens larvae respectively and introduced into a plastic container. Evaluation takes place 3 to 10 days later. […]

Heliothis spp. = test: Plot test on maize cv. KnockOut vs conventional maize, action against Heliothis spp.; conditions: natural infestation; for control on the plants of plot (a) (% action): plot (a) maize cv. KnockOut, spray 200, 100, 50, 10, 5, 1 ppm, evaluation 6 days later; for control level, plot (b): plot (b) conventional maize, spray 200, 100, 50, 10, 5, 1 ppm plus same ppm of the endotoxin expressed by KnockOut, 6 days
Protocol: (§3) A plot (a) planted with maize cv. KnockOut® and an adjacent plot (b) of the same size which is planted with conventional maize, both showing natural infestation with Ostrinia nubilalis, Spodoptera sp or Heliothis, are sprayed with an aqueous emulsion spray mixture comprising 200, 100, 50, 10, 5, 1 ppm of fenoxycarb . Immediately afterwards, plot (b) is treated with an emulsion spray mixture comprising 200, 100, 50, 10, 5, 1 ppm of the endotoxin expressed by KnockOut®. Evaluation takes place 6 days later. The percentage reduction in population (% action) is determined by comparing the number of dead pests on the plants of plot (a) with that on the plants of plot (b).
as §3, with “pymetrozine.” for “fenoxycarb .”
(§4) A plot (a) planted with maize cv. KnockOut® and an adjacent plot (b) of the same size which is planted with conventional maize, both showing natural infestation with Ostrinia nubilalis. Spodoptera sp or Heliothis, are sprayed with an aqueous emulsion spray mixture comprising 200, 100, 50, 10, 5, 1ppm of lufenuron. Immediately afterwards, plot (b) is treated with an emulsion spray mixture comprising 200, 100, 50, 10, 5, 1 ppm of the endotoxin expressed by KnockOut®. Evaluation takes place 6 days later. The percentage reduction in population (% action) is determined by comparing the number of dead pests on the plants of plot (a) with that on the plants of plot (b).

Ostrinia nubilalis = test: Plot test on maize cv. KnockOut vs conventional maize, action against Ostrinia nubilalis; conditions: natural infestation; for control on the plants of plot (a) (% action): plot (a) maize cv. KnockOut, spray 200, 100, 50, 10, 5, 1 ppm, evaluation 6 days later; for control level, plot (b): plot (b) conventional maize, spray 200, 100, 50, 10, 5, 1 ppm plus same ppm of the endotoxin expressed by KnockOut, 6 days
Protocol: as §3
as §3, with “pymetrozine.” for “fenoxycarb .”
as §4

Heliothis virescens = test: Spray test on young transgenic cotton plants, action against Heliothis virescens larvae; conditions: for control of the tested insects in the non-transgenic plant (% action): non-transgenic cotton, spray mixture of active ingredient and conventional CryIIIA-toxin, each 100, 50, 10, 5, 1 ppm, 3 to 10 days; for control of the tested insects in the transgenic plant (% action): spray 100, 50, 10, 5, 1 ppm, evaluation 3 to 10 days, compared with treated non-transgenic cotton
From the text: as §1
as §1, with “pymetrozine” for “lufenuron”
as §1, with “express tho” for “express the”, “δ-endotoxin CryIa (c)” for “δ-endotoxin CryIIIA”, “of fenoxycarb” for “of profenofos”, “comprising fenoxycarb” for “comprising lufenuron”, “and con-ventional” for “and conventional”
as §1, with “δ-endotoxin CryIa(c)” for “δ-endotoxin CryIIIA”, “of fenoxycarb” for “of profenofos”, “comprising fenoxycarb” for “comprising lufenuron”
as §2

Anthonomus grandis = test: Spray test on young transgenic cotton plants, action against Anthonomus grandis adults; conditions: for control of the tested insects in the non-transgenic plant (% action): non-transgenic cotton, spray mixture of active ingredient and conventional CryIIIA-toxin, each 100, 50, 10, 5, 1 ppm, 3 to 10 days; for control of the tested insects in the transgenic plant (% action): spray 100, 50, 10, 5, 1 ppm, evaluation 3 to 10 days, compared with treated non-transgenic cotton
From the text: as §1
as §1, with “pymetrozine” for “lufenuron”
as §1, with “express tho” for “express the”, “δ-endotoxin CryIa (c)” for “δ-endotoxin CryIIIA”, “of fenoxycarb” for “of profenofos”, “comprising fenoxycarb” for “comprising lufenuron”, “and con-ventional” for “and conventional”
as §1, with “δ-endotoxin CryIa(c)” for “δ-endotoxin CryIIIA”, “of fenoxycarb” for “of profenofos”, “comprising fenoxycarb” for “comprising lufenuron”
as §2

Spodoptera spp. = test: Plot test on maize cv. KnockOut vs conventional maize, action against Spodoptera spp.; conditions: natural infestation; for control on the plants of plot (a) (% action): plot (a) maize cv. KnockOut, spray 200, 100, 50, 10, 5, 1 ppm, evaluation 6 days later; for control level, plot (b): plot (b) conventional maize, spray 200, 100, 50, 10, 5, 1 ppm plus same ppm of the endotoxin expressed by KnockOut, 6 days
Protocol: as §3
as §3, with “pymetrozine.” for “fenoxycarb .”
as §4

[1] = tested on: Frankliniella occidentalis; test: Transgenic vs conventional cotton seedlings, action against Frankliniella occidentalis; conditions: 20° C.; for control on the plants of plot (a) (% action): spray 400 ppm, evaluated after 3 and 6 days; for control level, plot (b): plot (b) conventional cotton seedlings, 3 and 6 days
Protocol: Cotton seedlings expressing the δ-endotoxin Crylila on a plot (a) and conventional cotton seedlings on a plot (b) are infected with Frankliniella occidentalis and subsequently sprayed with a spray mixture comprising 400 ppm lufenuron. Immediately afterwards, plot (b) is treated with an emulsion spray mixture comprising 400 ppm of the S-endotoxin CrylIla. The seedlings of plot (a) and (b) are then incubated at 20° C. The test is evaluated after 3 and 6 days.
(§5) The percentage reduction in population (% action) is determined by comparing the number of dead pests on the plants of plot (a) with that on the plants of plot (b).
Cotton seedlings expressing the δ-endotoxin CryIa(c) on a plot (a) and conventional cotton seedlings on a plot (b) are infected with Frankliniella occidentalis and subsequently sprayed with a spray mixture comprising 400 ppm lufenuron. Immediately afterwards, plot (b) is treated with an emulsion spray mixture comprising 400 ppm of the δ-endotoxin CryIa(c). The seedlings of plot (a) and (b) are then incubated at 20° C. The test is evaluated after 3 and 6 days.

Aphis gossypii = test: Transgenic vs conventional cotton seedlings, action against Aphis gossypii; conditions: 20° C.; for control on the plants of plot (a) (% action): spray 400 ppm, evaluated after 3 and 6 days; for control level, plot (b): plot (b) conventional cotton seedlings, 3 and 6 days
Protocol: Cotton seedlings on a plot (a) expressing the δ-endotoxin CryllIa on a plot (a) and conven-tional cotton seedlings on a plot (b) are infected with Aphis gossypi and subsequently sprayed with a spray mixture comprising 400 ppm pymetrozine. immediately afterwards, plot (b) is treated with an emulsion spray mixture comprising 400 ppm of the δ-endotoxin Crylila. The seedlings of plot (a) and (b) are then incubated at 20° C. The test is evaluated after 3 and 6 days.
as §5
Cotton seedlings expressing the δ-endotoxin CryIA(c) on a plot (a) and conventional cotton seedlings on a plot (b) are infected with Aphis gossypii and subsequently sprayed with a spray mixture comprising 400 ppm pymetrozine. Immediately afterwards, plot (b) is treated with an emulsion spray mixture comprising 400 ppm of the δ-endotoxin […]. The seedlings of plot (a) and (b) are then incubated at 20° C. The test is evaluated after 3 and 6 days.

[2] = transgenic cotton expressing δ-endotoxin CryIa(c)
[3] = plot (a) cotton seedlings expressing δ-endotoxin CryIa(c)
[4] = transgenic cotton expressing δ-endotoxin CryIIIA

In the case of `CCOC(=O)NCCOc1ccc(Oc2ccccc2)cc1` [fenoxycarb, Ethyl 2-(4-Phenoxyphenoxy)ethylcarbamat], the “control of the tested insects in the non-transgenic plant (% action)” value (Spodoptera littoralis) is reported as “insufficient”, the “control of the tested insects in the transgenic plant (% action)” value (shortened to “control … in the transgenic plant (% action)”) (Spodoptera littoralis; [2]) is reported as “superior” and the “control on the plants of plot (a) (% action)” value (“control … (a) (% action)” for short) (Heliothis spp.) is reported as “Improved control”. For the same molecule, the “control level, plot (b)” value (Heliothis spp.) was at most 60%, the “control … (a) (% action)” value (Ostrinia nubilalis) was “Improved control” and the “control level, plot (b)” value (Ostrinia nubilalis) was at most 60%. The “control of the tested insects in the non-transgenic plant (% action)” value (Heliothis virescens) was “insufficient”, the “control … in the transgenic plant (% action)” value (Heliothis virescens; [2]) was “superior” and the “control of the tested insects in the non-transgenic plant (% action)” value (Anthonomus grandis) was “insufficient”. For the same molecule, the “control … in the transgenic plant (% action)” value (Anthonomus grandis; [2]) was “superior”, the “control … (a) (% action)” value (Spodoptera spp.) was “Improved control” and the “control level, plot (b)” value (Spodoptera spp.) was at most 60%.

For `O=C(NC(=O)c1c(F)cccc1F)Nc1cc(Cl)c(OC(F)(F)C(F)C(F)(F)F)cc1Cl` (centres unmarked) [lufenuron], the “control of the tested insects in the non-transgenic plant (% action)” value (Spodoptera littoralis) was “insufficient”, the “control … in the transgenic plant (% action)” value (Spodoptera littoralis; [2]) was “superior” and the “control … (a) (% action)” value (Heliothis spp.) was “Improved control”. The “control level, plot (b)” value (Heliothis spp.) was at most 60%, the “control … (a) (% action)” value (Ostrinia nubilalis) was “Improved control” and the “control level, plot (b)” value (Ostrinia nubilalis) was at most 60%. The “control … (a) (% action)” value [1, 3] was “Improved control”, the “control … (a) (% action)” value ([1]; plot (a) cotton seedlings expressing δ-endotoxin Crylila) was “Improved control” and the “control level, plot (b)” value ([1]; spray 400 ppm plus 400 ppm of endotoxin CrylIla) was at most 60%. The “control level, plot (b)” value ([1]; spray 400 ppm plus 400 ppm of δ-endotoxin CryIa(c)) was at most 60%, the “control of the tested insects in the non-transgenic plant (% action)” value (Heliothis virescens) was “insufficient” and the “control … in the transgenic plant (% action)” value (Heliothis virescens; [2]) was “superior”. For the same molecule, the “control of the tested insects in the non-transgenic plant (% action)” value (Anthonomus grandis) was “insufficient”, the “control … in the transgenic plant (% action)” value (Anthonomus grandis; [2]) was “superior” and the “control … (a) (% action)” value (Spodoptera spp.) was “Improved control”. For the same molecule, the “control level, plot (b)” value (Spodoptera spp.) was at most 60%.

In the case of `CCCSP(=O)(OCC)Oc1ccc(Br)cc1Cl` (centres unmarked) [profenofos, O-4-Brom-2-chlorphenyl O-Ethyl S-Propyl Phosphorothioat], the “control … in the transgenic plant (% action)” value (Spodoptera littoralis; [4]) is reported as “superior”, the “control … in the transgenic plant (% action)” value (Heliothis virescens; [4]) is reported as “superior” and the “control … in the transgenic plant (% action)” value (Anthonomus grandis; [4]) is reported as “superior”.

For `CC1=NNC(=O)N(N=Cc2cccnc2)C1` [pymetrozine, 2,3,4,5-Tetrahydro-3-oxo-4-[(pyridin-3-yl)-methylenamino]-6-methyl-1,2,4-triazin], the “control of the tested insects in the non-transgenic plant (% action)” value (Spodoptera littoralis) was “insufficient”, the “control … in the transgenic plant (% action)” value (Spodoptera littoralis; [2]) was “superior” and the “control … (a) (% action)” value (Heliothis spp.) was “Improved control”. For the same molecule, the “control level, plot (b)” value (Heliothis spp.) was at most 60%, the “control … (a) (% action)” value (Aphis gossypii; [3]) was “Improved control” and the “control … (a) (% action)” value (Aphis gossypii; plot (a) cotton seedlings expressing δ-endotoxin CryllIa) was “Improved control”. For the same molecule, the “control level, plot (b)” value (Aphis gossypii; spray 400 ppm plus 400 ppm of δ-endotoxin Crylila) was at most 60%, the “control level, plot (b)” value (Aphis gossypii; spray 400 ppm plus 400 ppm of δ-endotoxin Crylla) was at most 60% and the “control … (a) (% action)” value (Ostrinia nubilalis) was “Improved control”. The “control level, plot (b)” value (Ostrinia nubilalis) was at most 60%, the “control of the tested insects in the non-transgenic plant (% action)” value (Heliothis virescens) was “insufficient” and the “control … in the transgenic plant (% action)” value (Heliothis virescens; [2]) was “superior”. The “control of the tested insects in the non-transgenic plant (% action)” value (Anthonomus grandis) was “insufficient”, the “control … in the transgenic plant (% action)” value (Anthonomus grandis; [2]) was “superior” and the “control … (a) (% action)” value (Spodoptera spp.) was “Improved control”. The “control level, plot (b)” value (Spodoptera spp.) was at most 60%.

Source: patent publication US6486157B1, “Use of insecticides in pest control” (priority 1998, dated 2002)
